# Laboratory results as given in patent US20200405697A1, “Antitumor Agent” (Taiho Pharmaceutical Co., Ltd, priority 2017, published 2020).
# System: A549 (Human lung cancer cell line)
# Assay: Effect of combination of sulfonamide compound and other antitumor agent (CellTiter-Glo, combination index): A549
# [1] = Example Compound 1 281 nM + Fludarabine nucleoside 5920 nM, molar ratio 1:21.08
# [2] = Example Compound 1 281 nM + Prexasertib 1.97 nM, molar ratio 1:0.007018
# [3] = Example Compound 1 281 nM + SCH900776 908 nM, molar ratio 1:3.232
# [4] = Example Compound 1 422 nM + AZD6738 1040 nM, molar ratio 1:2.455
# [5] = Example Compound 1 422 nM + Cytarabine 108 nM, molar ratio 1:0.2566
# [6] = Example Compound 1 422 nM + Fludarabine nucleoside 8900 nM, molar ratio 1:21.08
# [7] = Example Compound 1 422 nM + Prexasertib 2.96 nM, molar ratio 1:0.007018
# [8] = Example Compound 1 422 nM + SCH900776 1360 nM, molar ratio 1:3.232
# [9] = Example Compound 1 633 nM + AZD6738 1550 nM, molar ratio 1:2.455
# [10] = Example Compound 1 633 nM + Fludarabine nucleoside 13300 nM, molar ratio 1:21.08
# [11] = Example Compound 1 633 nM + Guadecitabine 489 nM, molar ratio 1:0.7725
# [12] = Example Compound 1 633 nM + Prexasertib 4.44 nM, molar ratio 1:0.007018
# [13] = Example Compound 1 633 nM + SCH900776 2050 nM, molar ratio 1:3.232
# [14] = Example Compound 1 949 nM + AZD6738 2330 nM, molar ratio 1:2.455
# [15] = Example Compound 1 949 nM + Azacytidine 2740 nM, molar ratio 1:2.885
# [16] = Example Compound 1 949 nM + Cytarabine 244 nM, molar ratio 1:0.2566
# [17] = Example Compound 1 949 nM + Decitabine 2000 nM, molar ratio 1:2.108
# [18] = Example Compound 1 949 nM + Fludarabine nucleoside 20000 nM, molar ratio 1:21.08
# [19] = Example Compound 1 949 nM + Guadecitabine 733 nM, molar ratio 1:0.7725
# [20] = Example Compound 1 949 nM + Prexasertib 6.66 nM, molar ratio 1:0.007018
# [21] = Example Compound 1 949 nM + SCH900776 3070 nM, molar ratio 1:3.232
# [22] = Example Compound 1 949 nM + Sunitinib 1870 nM, molar ratio 1:1.969
# [23] = Example Compound 1 949 nM + Trifluridine 430 nM, molar ratio 1:0.4535
# [24] = Example Compound 1 1420 nM + 5-Fluorouracil 2700 nM, molar ratio 1:1.900
# [25] = Example Compound 1 1420 nM + AZD6738 3490 nM, molar ratio 1:2.455
# [26] = Example Compound 1 1420 nM + Azacytidine 4100 nM, molar ratio 1:2.885
# [27] = Example Compound 1 1420 nM + Cytarabine 364 nM, molar ratio 1:0.2566
# [28] = Example Compound 1 1420 nM + Decitabine 2990 nM, molar ratio 1:2.108
# [29] = Example Compound 1 1420 nM + Etoposide 3780 nM, molar ratio 1:2.663
# [30] = Example Compound 1 1420 nM + Gemcitabine 8.37 nM, molar ratio 1:0.005895
# [31] = Example Compound 1 1420 nM + Guadecitabine 1100 nM, molar ratio 1:0.7725
# [32] = Example Compound 1 1420 nM + Lapatinib 5990 nM, molar ratio 1:4.216
# [33] = Example Compound 1 1420 nM + Luminespib 13.5 nM, molar ratio 1:0.009473
# [34] = Example Compound 1 1420 nM + Midostaurin 250 nM, molar ratio 1:0.1761
# [35] = Example Compound 1 1420 nM + Olaparib 14800 nM, molar ratio 1:10.40
# [36] = Example Compound 1 1420 nM + Oxaliplatin 1060 nM, molar ratio 1:0.7448
# [37] = Example Compound 1 1420 nM + Sunitinib 2800 nM, molar ratio 1:1.969
# [38] = Example Compound 1 1420 nM + Talazoparib 7980 nM, molar ratio 1:5.617
# [39] = Example Compound 1 1420 nM + Trifluridine 644 nM, molar ratio 1:0.4535
# [40] = Example Compound 1 2140 nM + Cabozantinib […], molar ratio 1:4.216
# [41] = Example Compound 1 2140 nM + Carboplatin 79500 nM, molar ratio 1:37.17
# [42] = Example Compound 1 2140 nM + Cisplatin 9620 nM, molar ratio 1:4.494
# [43] = Example Compound 1 2140 nM + Trifluridine 970 nM, molar ratio 1:0.4535
# [44] = Example Compound 1 3200 nM + Carboplatin 119000 nM, molar ratio 1:37.17
# [45] = Example Compound 1 3200 nM + Cisplatin 14400 nM, molar ratio 1:4.494
# [46] = Example Compound 1 4810 nM + Carboplatin 179000 nM, molar ratio 1:37.17
structure (smiles),measurement,setting,value
"Cc1ccc(F)c([C@@H](C)[C@H](NS(=O)(=O)c2ccc(Br)cc2C(N)=O)c2n[nH]c(=O)o2)c1C [Example 1, 5-bromo-2-(N-((1 S,2R)-2-(6-fluoro-2,3-dimethylphenyl)-1-(5-oxo-4,5-dihydro-1,3,4-oxadiazol-2-yl)propyl)sulfamoyl)benzamide]",CI value,[1],0.550
same,Fa value,[1],0.2653
same,CI value,[2],0.349
same,Fa value,[2],0.3570
same,CI value,[3],0.196
same,Fa value,[3],0.6117
same,CI value,[4],0.449
same,Fa value,[4],0.5145
same,CI value,[5],0.770
same,Fa value,[5],0.4482
same,CI value,[6],0.388
same,Fa value,[6],0.6824
same,CI value,[7],0.226
same,Fa value,[7],0.7264
same,CI value,[8],0.195
same,Fa value,[8],0.7479
same,CI value,[9],0.350
same,Fa value,[9],0.7602
same,CI value,[10],0.367
same,Fa value,[10],0.8650
same,CI value,[11],0.471
same,Fa value,[11],0.4374
same,CI value,[12],0.193
same,Fa value,[12],0.8863
same,CI value,[13],0.190
same,Fa value,[13],0.8581
same,CI value,[14],0.315
same,Fa value,[14],0.8849
same,CI value,[15],0.895
same,Fa value,[15],0.5060
same,CI value,[16],0.461
same,Fa value,[16],0.7886
same,CI value,[17],0.501
same,Fa value,[17],0.5507
same,CI value,[18],0.537
same,Fa value,[18],0.8719
same,CI value,[19],0.502
same,Fa value,[19],0.5583
same,CI value,[20],0.288
same,Fa value,[20],0.8866
same,CI value,[21],0.257
same,Fa value,[21],0.8783
same,CI value,[22],0.721
same,Fa value,[22],0.6537
same,CI value,[23],0.890
same,Fa value,[23],0.6005
same,CI value,[24],0.881
same,Fa value,[24],0.6426
same,CI value,[25],0.482
same,Fa value,[25],0.8809
same,CI value,[26],0.676
same,Fa value,[26],0.7364
same,CI value,[27],0.491
same,Fa value,[27],0.8557
same,CI value,[28],0.583
same,Fa value,[28],0.6575
same,CI value,[29],0.772
same,Fa value,[29],0.6999
same,CI value,[30],0.858
same,Fa value,[30],0.8410
same,CI value,[31],0.563
same,Fa value,[31],0.6756
same,CI value,[32],0.480
same,Fa value,[32],0.8412
same,CI value,[33],0.894
same,Fa value,[33],0.7741
same,CI value,[34],0.871
same,Fa value,[34],0.7361
same,CI value,[35],0.761
same,Fa value,[35],0.6398
same,CI value,[36],0.831
same,Fa value,[36],0.7172
same,CI value,[37],0.688
same,Fa value,[37],0.8162
same,CI value,[38],0.661
same,Fa value,[38],0.6630
same,CI value,[39],0.717
same,Fa value,[39],0.8230
same,CI value,[40],0.790
same,Fa value,[40],0.9173
same,CI value,[41],0.632
same,Fa value,[41],0.9198
same,CI value,[42],0.848
same,Fa value,[42],0.9125
same,CI value,[43],0.761
same,Fa value,[43],0.8988
same,CI value,[44],0.502
same,Fa value,[44],0.9734
same,CI value,[45],0.694
same,Fa value,[45],0.9675
same,CI value,[46],0.569
same,Fa value,[46],0.9841
